Data reported in patent US20240415819A1, “MACROCYCLIC COMPOUNDS AS PROTEASOME SUBUNIT BETA TYPE-5 INHIBITORS” (Lead Discovery Center GmbH, priority 2021, published 2024).

Key:
[1] = test system: A549 (human lung carcinoma cell line); experiment: Glo assay of A549 cells (Table 3; ProteasomeGlo plating scheme); type: cell-based; settings: Homo sapiens; A549 cells; read-out: PGLo A549
Outline: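 After acoustic compound transfer, plates incubate 105 min (37° C., 5% CO2). Proteasome-Glo reagent containing Suc-LLVY-Glo substrate is added, plates are shaken, then luminescence is measured after 10-15 min to derive IC50 [nM]. Staurosporine and DMSO serve as controls.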

[2] = test system: RPMI 8226 (B lymphocyte cell line, multiple myeloma); experiment: 48 hr CTG viability assay, RPMI 8226; type: cell-based; settings: Homo sapiens, RPMI-8226; 48 hr CTG; read-out: RPMI-8226 IC50
Outline: (§1)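 Growth inhibition by compound over 48 h; IC50 (nM) derived from duplicate CellTiter-Glo luminescence readings across 0.0015–10 uM.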

[3] = test system: Hs 746T (human gastric carcinoma cell line); experiment: 48 hr CTG viability assay, Hs 746T; type: cell-based; settings: Hs746T, 48 hr CTG, read-out: Hs 746T IC50
Outline: as §1

[4] = test system: MM1 S (B lymphoblast cell line); experiment: 48 hr CTG viability assay, MM1S; type: cell-based; settings: Homo sapiens, 48 hr CTG, read-out: MM1S IC50
Outline: as §1

[5] = target: T1, β5 subunit of the human constitutive proteasome (CPS) (Homo sapiens, UniProt P28074); experiment: β5 inhibition assay, human constitutive proteasome (Suc-LLVY-AMC); type: biochemical; settings: IC50 class, Suc-LLVY-AMC substrate
T1 construct: purchased Boston Biochem E-360
Experimental: The enzymatic activity of the β5 subunit of the human constitutive proteasome (CPS) is analyzed. In another assay, which differs from the assay of the human constitutive proteasome only in using the human immunoproteasome (IPS) the enzymatic activity of the β5 subunit of the human immunoproteasome (IPS) is analyzed. […] Inhibition is indicated as IC50 [nM] (“-”=not measured).

[6] = target: T2, β5 subunit of the human immunoproteasome (IPS) (Homo sapiens, UniProt P28062); experiment: β5 inhibition assay, human immunoproteasome (Suc-LLVY-AMC); type: biochemical; settings: IC50 class, Suc-LLVY-AMC substrate
T2 construct: purchased Boston Biochem E-370
Outline: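 β5 activity is read as liberated AMC fluorescence (355/460 nm) after 4 h dark reaction at RT with 22.6 μM Suc-LLVY-AMC, stopped by 1 μM bortezomib. Beforehand, 1 nM human IPS and compound sat 10 min at RT in HEPES pH 7.5 buffer containing NaCl, 0.02% SDS and DTT.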

Row | SMILES | IC50 [1] | IC50 [2] | IC50 [3] | IC50 [4] | IC50 [5] | IC50 [6]
1 | CC(=O)c1ccc(CC(=O)N[C@H]2CCC(=O)NCCCCOc3ccc(C)c(c3)CNC(=O)[C@H](CCc3ccccc3)NC2=O)cc1 [Compound 707, 2-(4-acetylphenyl)-N-((11S,14S)-1^4-methyl-8,12,15-trioxo-1^4-phenethyl-2-oxa-7,13,16-triaza-1(1,3)-benzenacycloheptadecaphane-11-yl)acetamide] | < 0.1 µM | < 0.1 µM | < 0.1 µM | < 0.1 µM | < 0.1 µM | < 0.1 µM
2 | Cc1ccc2cc1CNC(=O)[C@H](CCc1ccccc1)NC(=O)[C@@H](NC(=O)CCNC(=O)C1CC3CCC1C3)CC(=O)N1CCCC(CCO2)C1 (stereo partly drawn) [Compound 617, N-(3-(((9S,12S)-5^4-methyl-8,11,14-trioxo-9-phenethyl-4-oxa-7,10-diaza-1(3,1)-piperidina-5(1,3)-benzenacyclotetradecaphane-12-yl)amino)-3-oxopropyl)bicyclo[2.2.1]heptane-2-carboxamide] | < 0.1 µM | < 0.1 µM | < 0.1 µM | < 0.1 µM | < 0.1 µM | < 0.1 µM
3 | Cc1ccc2cc1CNC(=O)[C@H](CCc1ccccc1)NC(=O)[C@@H](NC(=O)CCO[C@H]1C[C@@H]3CC[C@H]1C3)CC(=O)N1CCCC(CCO2)C1 [Compound 642, 3-(((1S,2S,4R)-bicyclo[2.2.1]heptan-2-yl)oxy)-N-((9S,12S)-5^4-methyl-8,11,14-trioxo-9-phenethyl-4-oxa-7,10-diaza-1(3,1)-piperidina-5(1,3)-benzenacyclotetradecaphane-12-yl)propanamide] | < 0.1 µM | < 0.1 µM | < 0.1 µM | < 0.1 µM | < 0.1 µM | < 0.1 µM
4 | Cc1ccc2cc1CNC(=O)[C@H](C1Cc3ccccc3C1)NC(=O)[C@@H](NC(=O)Cc1cn3ccsc3n1)CC(=O)N1CCCC(CCO2)C1 (stereo partly drawn) [Compound 602, N-((9S,12S)-9-(2,3-dihydro-1H-inden-2-yl)-5^4-methyl-8,11,14-trioxo-4-oxa-7,10-diaza-1(3,1)-piperidina-5(1,3)-benzenacyclotetradecaphane-12-yl)-2-(imidazo[2,1-b]thiazol-6-yl)acetamide] | < 0.1 µM | < 0.1 µM | < 0.1 µM | < 0.1 µM | < 0.1 µM | < 0.1 µM
5 | Cc1ccc2cc1CNC(=O)[C@H](CCc1ccccc1)NC(=O)[C@@H](NC(=O)CCNC(=O)C1CC3(CCC3)C1)CC(=O)N1CCCC(CCO2)C1 (stereo partly drawn) [Compound 616, N-(3-(((9S,12S)-5^4-methyl-8,11,14-trioxo-9-phenethyl-4-oxa-7,10-diaza-1(3,1)-piperidina-5(1,3)-benzenacyclotetradecaphane-12-yl)amino)-3-oxopropyl)spiro[3.3]heptane-2-carboxamide] | < 0.1 µM | < 0.1 µM | < 0.1 µM | < 0.1 µM | < 0.1 µM | < 0.1 µM
6 | Cc1ccc2cc1CNC(=O)[C@H](CCc1ccccc1)NC(=O)[C@@H](NC(=O)C(C)(C)CO)CCCC(=O)NCCCCO2 [Compound 722, 3-hydroxy-2,2-dimethyl-N-((12S,15S)-1^4-methyl-8,13,16-trioxo-15-phenethyl-2-oxa-7,14,17-triaza-1(1,3)-benzenacyclooctadecaphane-12-yl)propanamide] | 0.1 to 0.5 µM | 0.1 to 0.5 µM | 0.5 to 1 µM | 0.1 to 0.5 µM | < 0.1 µM | < 0.1 µM
7 | Cc1ccc2cc1CNC(=O)[C@H](CCc1ccccc1)NC(=O)[C@@H](NS(=O)(=O)Cc1ccccc1F)CC(=O)N1CCCC(CCO2)C1 (stereo partly drawn) [Compound 636, 1-(2-fluorophenyl)-N-((9S,12S)-5^4-methyl-8,11,14-trioxo-9-phenethyl-4-oxa-7,10-diaza-1(3,1)-piperidina-5(1,3)-benzenacyclotetradecaphane-12-yl)methanesulfonamide] | < 0.1 µM | < 0.1 µM | < 0.1 µM | < 0.1 µM | < 0.1 µM | < 0.1 µM
8 | Cc1ccc2cc1CNC(=O)[C@H](CCc1ccccc1)NC(=O)[C@@H](NC(=O)C1CC3CCC(C1)N3)CC(=O)N1CCCC(CCO2)C1 (stereo partly drawn) [Compound 723, N-((9S,12S)-5^4-methyl-8,11,14-trioxo-9-phenethyl-4-oxa-7,10-diaza-1(3,1)-piperidina-5(1,3)-benzenacyclotetradecaphane-12-yl)-8-azabicyclo[3.2]octane-3-carboxamide] | < 0.1 µM | 0.1 to 0.5 µM | 0.1 to 0.5 µM | 0.1 to 0.5 µM | < 0.1 µM | < 0.1 µM
9 | Cc1ccc2cc1CNC(=O)[C@H](CCc1ccccc1)NC(=O)[C@@H](NC(=O)CCNCc1cccc(N3CCOCC3)c1)CC(=O)N1CCCC(CCO2)C1 (stereo partly drawn) [Compound 665, N-((9S,12S)-5^4-methyl-8,11,14-trioxo-9-phenethyl-4-oxa-7,10-diaza-1(3,1)-piperidina-5(1,3)-benzenacyclotetradecaphane-12-yl)-3-((3-morpholinobenzyl)amino)propanamide] | < 0.1 µM | < 0.1 µM | < 0.1 µM | < 0.1 µM | < 0.1 µM | < 0.1 µM
10 | Cc1ccc2cc1CNC(=O)[C@H](CCc1ccccc1)NC(=O)[C@@H](NCC(C)(C)CO)CC(=O)N1CCCC(CCO2)C1 (stereo partly drawn) [Compound 690, (9S,12S)-12-((3-hydroxy-2,2-dimethylpropyl)amino)-5^4-methyl-9-phenethyl-4-oxa-7,10-diaza-1(3,1)-piperidina-5(1,3)-benzenacyclotetradecaphane-8,11,14-trione] | < 0.1 µM | < 0.1 µM | < 0.1 µM | < 0.1 µM | < 0.1 µM | < 0.1 µM

The remaining lines, values ahead:

Row | IC50 [1] | IC50 [2] | IC50 [3] | IC50 [4] | IC50 [5] | IC50 [6] | SMILES
11 | < 0.1 µM | < 0.1 µM | < 0.1 µM | < 0.1 µM | < 0.1 µM | < 0.1 µM | Cc1ccc2cc1CNC(=O)[C@H](CCc1ccccc1)NC(=O)[C@@H](NC(=O)CCN1CCC3(CCCC3)C1)CC(=O)N1CCCC(CCO2)C1 (stereo partly drawn) [Compound 652, N-((9S,12S)-5^4-methyl-8,11,14-trioxo-9-phenethyl-4-oxa-7,10-diaza-1(3,1)-piperidina-5(1,3)-benzenacyclotetradecaphane-12-yl)-3-(2-azaspiro[4.4]nonan-2-yl)propanamide]
12 | < 0.1 µM | < 0.1 µM | < 0.1 µM | < 0.1 µM | < 0.1 µM | < 0.1 µM | Cc1ccc2cc1CNC(=O)[C@H](CCc1ccccc1)NC(=O)[C@@H](NC(=O)CCN1CCC3(CCCCC3)CC1)CC(=O)N1CCCC(CCO2)C1 (stereo partly drawn) [Compound 608, N-((9S,12S)-5^4-methyl-8,11,14-trioxo-9-phenethyl-4-oxa-7,10-diaza-1(3,1)-piperidina-5(1,3)-benzenacyclotetradecaphane-12-yl)-3-(3-azaspiro[5.5]undecan-3-yl)propanamide]
13 | 0.1 to 0.5 µM | 0.1 to 0.5 µM | < 0.1 µM | < 0.1 µM | < 0.1 µM | < 0.1 µM | Cc1ccc2cc1CNC(=O)[C@H](CCc1ccccc1)NC(=O)[C@@H](NC(=O)C1CC3(CNC3)C1)CC(=O)N1CCCC(CCO2)C1 (stereo partly drawn) [Compound 721, N-((9S,12S)-5^4-methyl-8,11,14-trioxo-9-phenethyl-4-oxa-7,10-diaza-1(3,1)-piperidina-5(1,3)-benzenacyclotetradecaphane-12-yl)-2-azaspiro[3.3]heptane-6-carboxamide]
14 | < 0.1 µM | 0.1 to 0.5 µM | 0.1 to 0.5 µM | 0.1 to 0.5 µM | < 0.1 µM | < 0.1 µM | Cc1ccc2cc1CNC(=O)[C@H](CCc1ccncc1)NC(=O)[C@@H](NC(=O)C1(F)CCNCC1)CC(=O)N1CCCC(CCO2)C1 (stereo partly drawn) [Compound 729, 4-fluoro-N-((12S)-5^4-methyl-8,11,14-trioxo-9-(2-(pyridin-4-yl)ethyl)-4-oxa-7,10-diaza-1(3,1)-piperidina-5(1,3)-benzenacyclotetradecaphane-12-yl)piperidine-4-carboxamide]
15 | < 0.1 µM | < 0.1 µM | < 0.1 µM | < 0.1 µM | < 0.1 µM | < 0.1 µM | Cc1ccc2cc1CNC(=O)[C@H](CCc1ccccc1)NC(=O)[C@@H](NC(=O)CCNCC1CC1)CC(=O)N1CCCC(CCO2)C1 (stereo partly drawn) [Compound 694, 3-((cyclopropylmethyl)amino)-N-((9S,12S)-5^4-methyl-8,11,14-trioxo-9-phenethyl-4-oxa-7,10-diaza-1(3,1)-piperidina-5(1,3)-benzenacyclotetradecaphane-12-yl)propanamide]
